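Cultured in 96-well plates, cells were exposed to test compound for 48 hours across five concentrations. GI50 is the concentration that inhibits growth by half.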 Active and inactive are the calls of the source. Rule as the data show it: active = GI50 up to about 1.1 µM and inactive = higher.
Columns and labels:
Experiment in all cases: growth of human tumour cells (NCI), 48 h
[1] = system: SK-OV-3
[2] = system: M19-MEL
[3] = system: SK-MEL-5
[4] = system: SK-MEL-28
[5] = system: SR
[6] = system: SF-295
[7] = system: M14
[8] = system: CCRF-CEM
[9] = system: RPMI-8226
[10] = system: ACHN
[11] = system: SF-268
[12] = system: SF-539
[13] = system: K562
[14] = system: UACC-257
[15] = system: 786-0
[16] = system: EKVX
[17] = system: XF498
[18] = system: COLO 205
[19] = system: Malme-3M
[20] = system: LOX IMVI
[21] = system: NCI-H23
[22] = system: HT-29
[23] = system: TK-10
[24] = system: SNB-78
[25] = system: HOP-92
[26] = system: A549
[27] = system: A498
[28] = system: IGROV-1
[29] = system: HCT-15
[30] = system: NCI-H460
[31] = system: SN12C
[32] = system: HOP-62
[33] = system: OVCAR-8
[34] = system: HOP-18
[35] = system: NCI-H226
[36] = system: HL-60
[37] = system: DMS-273
[38] = system: HCC 2998
[39] = system: UACC-62
[40] = system: RXF 393
[41] = system: OVCAR-3
[42] = system: LXFL 529
[43] = system: KM-20L2
[44] = system: UO-31
[45] = system: HCT-116
[46] = system: CAKI-1
[47] = system: SNB-75
[48] = system: SNB-19
[49] = system: U-251
[50] = system: SW-620
[51] = system: DLD-1
[52] = system: RXF 631
[53] = system: MOLT-4
[54] = system: OVCAR-4
[55] = system: DMS-114
[56] = system: SK-MEL-2
[57] = system: MDA-MB-231
[58] = system: BT-549
[59] = system: NCI/ADR-RES
[60] = system: MDA-N
[61] = system: KM12
[62] = system: Hs-578T
[63] = system: MDA-MB-435
[64] = system: DU-145
[65] = system: PC-3
[66] = system: MCF7
[67] = system: OVCAR-5
[68] = system: NCI-H522
[69] = system: T47D

With `Cn1cc2c(n1)c(N/N=C/c1ccccc1)nn1nnnc21` the GI50 [1] was > 100 µM (inactive), the GI50 [2] was > 100 µM (inactive) and the GI50 [3] was > 100 µM (inactive). The GI50 [4] was > 100 µM (inactive), the GI50 [5] was > 100 µM (inactive) and the GI50 [6] was > 100 µM (inactive). For the same molecule, the GI50 [7] was > 100 µM (inactive), the GI50 [8] was > 100 µM (inactive) and the GI50 [9] was > 100 µM (inactive). For the same molecule, the GI50 [10] was > 100 µM (inactive), the GI50 [11] was > 100 µM (inactive) and the GI50 [12] was > 100 µM (inactive). The GI50 [13] was > 100 µM (inactive), the GI50 [14] was > 100 µM (inactive) and the GI50 [15] was > 100 µM (inactive). For the same molecule, the GI50 [16] was > 100 µM (inactive), the GI50 [17] was > 100 µM (inactive) and the GI50 [18] was > 100 µM (inactive). The GI50 [19] was > 100 µM (inactive), the GI50 [20] was > 100 µM (inactive) and the GI50 [21] was > 100 µM (inactive). For the same molecule, the GI50 [22] was > 100 µM (inactive), the GI50 [23] was > 100 µM (inactive) and the GI50 [24] was > 100 µM (inactive). The GI50 [25] was > 100 µM (inactive), the GI50 [26] was > 100 µM (inactive) and the GI50 [27] was > 100 µM (inactive). The GI50 [28] was > 100 µM (inactive), the GI50 [29] was greater than 100 µM and the GI50 [30] was > 100 µM (inactive). For the same molecule, the GI50 [31] was > 100 µM (inactive), the GI50 [32] was > 100 µM (inactive) and the GI50 [33] was > 100 µM (inactive). For the same molecule, the GI50 [34] was > 100 µM (inactive), the GI50 [35] was > 100 µM (inactive) and the GI50 [36] was > 100 µM (inactive). The GI50 [37] was > 100 µM (inactive), the GI50 [38] was > 100 µM (inactive) and the GI50 [39] was > 100 µM (inactive). For the same molecule, the GI50 [40] was > 100 µM (inactive), the GI50 [41] was > 100 µM (inactive) and the GI50 [42] was > 100 µM (inactive). For the same molecule, the GI50 [43] was > 100 µM (inactive), the GI50 [44] was > 100 µM (inactive) and the GI50 [45] was > 100 µM (inactive). The GI50 [46] was > 100 µM (inactive), the GI50 [47] was > 100 µM (inactive) and the GI50 [48] was > 100 µM (inactive). For the same molecule, the GI50 [49] was > 100 µM (inactive), the GI50 [50] was > 100 µM (inactive) and the GI50 [51] was > 100 µM (inactive). The GI50 [52] was > 100 µM (inactive), the GI50 [53] was > 100 µM (inactive) and the GI50 [54] was > 100 µM (inactive). The GI50 [55] was > 100 µM (inactive).

`CCN(CC)CCCC(C)Nc1c2ccc(Cl)cc2nc2ccc(OC)cc12` (configuration not stated) was tested, and the GI50 [1] was 4.84 µM (inactive), the GI50 [2] was 1.76 µM (inactive) and the GI50 [3] was 1.71 µM (inactive). For the same molecule, the GI50 [56] was 1.67 µM (inactive), the GI50 [4] was 1.61 µM (inactive) and the GI50 [5] was 0.895 µM (active). The GI50 [6] was 0.729 µM (active), the GI50 [7] was 1.81 µM (inactive) and the GI50 [57] was 10.1 µM (inactive). The GI50 [8] was 1 µM (active), the GI50 [9] was 2.05 µM (inactive) and the GI50 [58] was 2.47 µM (inactive). For the same molecule, the GI50 [59] was 1.86 µM (inactive), the GI50 [10] was 2.42 µM (inactive) and the GI50 [11] was 2.24 µM (inactive). For the same molecule, the GI50 [12] was 1.67 µM (inactive), the GI50 [13] was 0.824 µM (active) and the GI50 [14] was 1.85 µM (inactive). The GI50 [15] was 0.993 µM (active), the GI50 [16] was 4.61 µM (inactive) and the GI50 [17] was 1.73 µM (inactive). The GI50 [18] was 1.24 µM (inactive), the GI50 [19] was 1.9 µM (inactive) and the GI50 [60] was 1.78 µM (inactive). The GI50 [20] was 1.07 µM (active), the GI50 [61] was 1.63 µM (inactive) and the GI50 [21] was 1.61 µM (inactive). The GI50 [22] was 1.03 µM (active), the GI50 [23] was 3.13 µM (inactive) and the GI50 [24] was 3.23 µM (inactive). The GI50 [25] was 1.14 µM (inactive), the GI50 [26] was 1.65 µM (inactive) and the GI50 [27] was 2.48 µM (inactive). The GI50 [28] was 1.76 µM (inactive), the GI50 [29] was 2.29 µM and the GI50 [30] was 0.673 µM (active). The GI50 [31] was 2.32 µM (inactive), the GI50 [32] was 2.22 µM (inactive) and the GI50 [62] was 3.37 µM (inactive). For the same molecule, the GI50 [33] was 1.05 µM (active), the GI50 [63] was 1.47 µM (inactive) and the GI50 [35] was 4 µM (inactive). For the same molecule, the GI50 [36] was 2.03 µM (inactive), the GI50 [37] was 0.548 µM (active) and the GI50 [38] was 1.36 µM (inactive). For the same molecule, the GI50 [64] was 3.56 µM (inactive), the GI50 [65] was 1.78 µM (inactive) and the GI50 [39] was 1.54 µM (inactive). For the same molecule, the GI50 [40] was 1.2 µM (inactive), the GI50 [41] was 2.85 µM (inactive) and the GI50 [66] was 2.08 µM (inactive). The GI50 [42] was 1.53 µM (inactive), the GI50 [43] was 1.33 µM (inactive) and the GI50 [44] was 2.08 µM (inactive). For the same molecule, the GI50 [45] was 0.61 µM (active), the GI50 [67] was 2 µM (inactive) and the GI50 [46] was 1.59 µM (inactive). The GI50 [68] was 1.35 µM (inactive), the GI50 [47] was 1.47 µM (inactive) and the GI50 [48] was 5.36 µM (inactive). For the same molecule, the GI50 [49] was 1.29 µM (inactive), the GI50 [50] was 0.637 µM (active) and the GI50 [51] was 1.64 µM (inactive). For the same molecule, the GI50 [52] was 1.77 µM (inactive), the GI50 [53] was 0.518 µM (active) and the GI50 [69] was 2.31 µM (inactive). For the same molecule, the GI50 [54] was 1.65 µM (inactive) and the GI50 [55] was 1.7 µM (inactive).

For `COC(=O)C1=C(c2ccc(Cl)cc2)C(O)NC(NN)=N1` (configuration not stated), the GI50 [1] was > 100 µM (inactive), the GI50 [2] was > 100 µM (inactive) and the GI50 [3] was > 100 µM (inactive). The GI50 [56] was > 100 µM (inactive), the GI50 [4] was > 100 µM (inactive) and the GI50 [5] was > 100 µM (inactive). The GI50 [6] was > 100 µM (inactive), the GI50 [7] was > 100 µM (inactive) and the GI50 [8] was > 100 µM (inactive). For the same molecule, the GI50 [9] was > 100 µM (inactive), the GI50 [10] was > 100 µM (inactive) and the GI50 [11] was > 100 µM (inactive). For the same molecule, the GI50 [12] was > 100 µM (inactive), the GI50 [13] was > 100 µM (inactive) and the GI50 [14] was > 100 µM (inactive). The GI50 [15] was > 100 µM (inactive), the GI50 [16] was > 100 µM (inactive) and the GI50 [17] was > 100 µM (inactive). The GI50 [19] was > 100 µM (inactive), the GI50 [20] was > 100 µM (inactive) and the GI50 [61] was > 100 µM (inactive). The GI50 [21] was > 100 µM (inactive), the GI50 [22] was > 100 µM (inactive) and the GI50 [23] was > 100 µM (inactive). The GI50 [24] was > 100 µM (inactive), the GI50 [25] was > 100 µM (inactive) and the GI50 [26] was > 100 µM (inactive). For the same molecule, the GI50 [28] was > 100 µM (inactive), the GI50 [29] was greater than 100 µM and the GI50 [30] was > 100 µM (inactive). For the same molecule, the GI50 [31] was > 100 µM (inactive), the GI50 [32] was > 100 µM (inactive) and the GI50 [33] was > 100 µM (inactive). For the same molecule, the GI50 [34] was > 100 µM (inactive), the GI50 [35] was > 100 µM (inactive) and the GI50 [36] was > 100 µM (inactive). For the same molecule, the GI50 [38] was > 100 µM (inactive), the GI50 [39] was > 100 µM (inactive) and the GI50 [40] was > 100 µM (inactive). For the same molecule, the GI50 [41] was > 100 µM (inactive), the GI50 [42] was > 100 µM (inactive) and the GI50 [44] was > 100 µM (inactive). The GI50 [45] was > 100 µM (inactive), the GI50 [67] was > 100 µM (inactive) and the GI50 [46] was > 100 µM (inactive). The GI50 [68] was > 100 µM (inactive), the GI50 [48] was > 100 µM (inactive) and the GI50 [49] was > 100 µM (inactive). The GI50 [50] was > 100 µM (inactive), the GI50 [51] was > 100 µM (inactive) and the GI50 [52] was > 100 µM (inactive). For the same molecule, the GI50 [53] was > 100 µM (inactive), the GI50 [54] was > 100 µM (inactive) and the GI50 [55] was > 100 µM (inactive).
